Active and inactive are the calls of the source.
Experiments:
[1] = biological target: T1, Heat shock factor protein 1 (Mus musculus, UniProt P38532); experiment: inhibition of MG132-induced HSE-luciferase signal, confirmation, cell-based, NIH3T3, luminescence, dose retest (AID 2382); assay type: functional;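 note: NIH3T3 fibroblasts with HSF1-driven luciferase reporter stressed by proteasome inhibitor MG132; luminescence from HSF1-driven luciferase expression after 8 hours of MG132 stress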
T1 sequence (P38532 whole entry): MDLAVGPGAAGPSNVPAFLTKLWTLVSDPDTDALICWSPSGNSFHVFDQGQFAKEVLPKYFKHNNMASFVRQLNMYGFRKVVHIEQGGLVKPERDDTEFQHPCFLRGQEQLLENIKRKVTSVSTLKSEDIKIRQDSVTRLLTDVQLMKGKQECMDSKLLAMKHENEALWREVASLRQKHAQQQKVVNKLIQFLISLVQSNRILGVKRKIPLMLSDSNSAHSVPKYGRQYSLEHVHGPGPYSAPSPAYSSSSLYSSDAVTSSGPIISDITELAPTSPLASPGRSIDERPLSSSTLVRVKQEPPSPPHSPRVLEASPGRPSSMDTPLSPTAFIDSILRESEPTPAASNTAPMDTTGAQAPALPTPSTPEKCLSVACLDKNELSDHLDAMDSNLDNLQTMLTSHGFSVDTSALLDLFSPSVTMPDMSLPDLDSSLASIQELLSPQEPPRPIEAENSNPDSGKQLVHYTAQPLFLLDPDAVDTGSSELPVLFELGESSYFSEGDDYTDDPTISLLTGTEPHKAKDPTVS

H9c2 = experiment: cells; assay type: functional, cell-based; conditions: Rattus norvegicus, H9c2, Myocardium;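 note: confirmatory concentration-response retest of ultra-high-throughput screening hits for modulation of myocardial damage; cell death induced by hydrogen peroxide oxidative stress; compound pretreatment for 60 min then peroxide exposure for 2 h; potency is for protecting the cells against peroxide damage rather than for killing them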
Leucine aminopeptidase = biological target: T2, Leucine aminopeptidase (Plasmodium falciparum 3D7, UniProt Q8IL11); experiment: P. falciparum M17LAP inhibitors, primary screen, biochemical, fluorogenic H-Leu-NHMec substrate, 1536-well (AID 1619); assay type: functional
T2 sequence (Q8IL11 whole entry): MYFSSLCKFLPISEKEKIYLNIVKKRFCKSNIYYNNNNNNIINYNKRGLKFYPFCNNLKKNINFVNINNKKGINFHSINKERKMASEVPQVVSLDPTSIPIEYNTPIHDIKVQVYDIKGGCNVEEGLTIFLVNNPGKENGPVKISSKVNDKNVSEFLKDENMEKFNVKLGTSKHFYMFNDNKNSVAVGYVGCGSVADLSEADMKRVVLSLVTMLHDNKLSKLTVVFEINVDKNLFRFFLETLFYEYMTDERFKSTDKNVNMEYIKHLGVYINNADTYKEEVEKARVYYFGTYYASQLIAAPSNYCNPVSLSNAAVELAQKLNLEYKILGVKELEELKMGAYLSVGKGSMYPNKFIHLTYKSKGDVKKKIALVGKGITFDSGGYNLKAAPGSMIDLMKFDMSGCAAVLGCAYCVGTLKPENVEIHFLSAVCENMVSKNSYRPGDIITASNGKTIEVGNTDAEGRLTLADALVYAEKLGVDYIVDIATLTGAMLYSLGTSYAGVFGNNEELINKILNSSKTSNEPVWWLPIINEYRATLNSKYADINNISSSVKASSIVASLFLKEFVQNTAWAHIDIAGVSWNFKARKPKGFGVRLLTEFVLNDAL

cells = assay type: functional
[2] = biological target: T3, Short transient receptor potential channel 4 (Mus musculus, UniProt Q9QUQ5); experiment: mouse TRPC4 channel inhibitors, dose response, cell-based, HEK293 TRPC4/mu-opioid, Fluo-4 calcium (AID 434942); assay type: functional;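 note: potency of inhibitors blocking the TRPC4 calcium response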
T3 sequence (Q9QUQ5 whole entry): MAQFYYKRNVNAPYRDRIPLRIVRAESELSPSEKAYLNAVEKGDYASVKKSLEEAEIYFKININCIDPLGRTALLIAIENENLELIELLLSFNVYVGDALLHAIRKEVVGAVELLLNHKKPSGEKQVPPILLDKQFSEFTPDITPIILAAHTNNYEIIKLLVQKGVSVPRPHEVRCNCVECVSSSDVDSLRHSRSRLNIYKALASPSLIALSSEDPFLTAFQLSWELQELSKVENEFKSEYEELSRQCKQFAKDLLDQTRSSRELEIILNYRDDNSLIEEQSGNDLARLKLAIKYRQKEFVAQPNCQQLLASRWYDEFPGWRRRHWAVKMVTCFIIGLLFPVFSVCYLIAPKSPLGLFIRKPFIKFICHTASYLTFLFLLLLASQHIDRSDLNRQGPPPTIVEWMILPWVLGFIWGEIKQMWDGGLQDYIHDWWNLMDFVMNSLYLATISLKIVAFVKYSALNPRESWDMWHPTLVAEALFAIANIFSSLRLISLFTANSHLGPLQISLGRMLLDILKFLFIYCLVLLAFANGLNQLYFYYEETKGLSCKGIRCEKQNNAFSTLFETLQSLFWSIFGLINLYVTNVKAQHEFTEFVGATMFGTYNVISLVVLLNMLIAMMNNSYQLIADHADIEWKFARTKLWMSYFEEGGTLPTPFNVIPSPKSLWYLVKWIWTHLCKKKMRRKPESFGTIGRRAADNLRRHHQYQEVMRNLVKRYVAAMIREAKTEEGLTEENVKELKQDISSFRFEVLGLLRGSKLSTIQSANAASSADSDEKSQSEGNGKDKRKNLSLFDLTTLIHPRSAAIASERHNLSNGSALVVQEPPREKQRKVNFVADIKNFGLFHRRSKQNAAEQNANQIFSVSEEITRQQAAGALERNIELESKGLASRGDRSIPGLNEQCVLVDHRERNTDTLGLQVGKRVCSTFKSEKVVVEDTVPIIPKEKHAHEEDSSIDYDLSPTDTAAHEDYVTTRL

[3] = cytotoxicity toward DRD oncogenic fibroblasts, dose response, cell-based, non-viral oncogenic, luminescence (AID 1934); assay type: functional; conditions: Homo sapiens
BJ [4] = experiment: cytotoxicity toward BJ-TERT-LT-ST fibroblasts, dose response, cell-based, RAS-independent, luminescence (AID 1935); assay type: functional; conditions: Homo sapiens;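 note: BJ fibroblasts immortalized with TERT plus LT and ST oncogenes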
BJ [5] = experiment: cells; assay type: functional, cell-based; conditions: Homo sapiens
BJ [6] = experiment: cytotoxicity toward BJ-TERT fibroblasts, dose response, cell-based, RAS-independent, luminescence (AID 1933); assay type: functional; conditions: Homo sapiens
[7] = biological target: T4, RNA-binding protein pos-1 (Caenorhabditis elegans, UniProt G5EF15); experiment: inhibitors of POS-1/mex-3 RNA binding, dose response, biochemical, fluorescence polarization (AID 1964);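 note: purified POS-1 fused to maltose binding protein made in E. coli; potency of compounds blocking POS-1 binding to fluorescent RNA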
T4 sequence (G5EF15 whole entry): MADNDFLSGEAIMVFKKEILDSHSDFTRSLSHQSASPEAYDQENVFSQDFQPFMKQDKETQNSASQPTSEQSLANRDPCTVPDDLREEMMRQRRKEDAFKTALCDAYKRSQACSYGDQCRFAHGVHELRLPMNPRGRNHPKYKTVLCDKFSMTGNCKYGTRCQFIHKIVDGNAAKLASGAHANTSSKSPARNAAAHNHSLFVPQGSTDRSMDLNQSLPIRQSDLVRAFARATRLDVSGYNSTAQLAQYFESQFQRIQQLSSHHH

[8] = biological target: T5, Zinc finger protein mex-5 (Caenorhabditis elegans, UniProt Q9XUB2); experiment: MEX-5/TCR-2 RNA interaction inhibitors, dose response, biochemical, C. elegans, fluorescence polarization (AID 1960)
T5 sequence (Q9XUB2 whole entry): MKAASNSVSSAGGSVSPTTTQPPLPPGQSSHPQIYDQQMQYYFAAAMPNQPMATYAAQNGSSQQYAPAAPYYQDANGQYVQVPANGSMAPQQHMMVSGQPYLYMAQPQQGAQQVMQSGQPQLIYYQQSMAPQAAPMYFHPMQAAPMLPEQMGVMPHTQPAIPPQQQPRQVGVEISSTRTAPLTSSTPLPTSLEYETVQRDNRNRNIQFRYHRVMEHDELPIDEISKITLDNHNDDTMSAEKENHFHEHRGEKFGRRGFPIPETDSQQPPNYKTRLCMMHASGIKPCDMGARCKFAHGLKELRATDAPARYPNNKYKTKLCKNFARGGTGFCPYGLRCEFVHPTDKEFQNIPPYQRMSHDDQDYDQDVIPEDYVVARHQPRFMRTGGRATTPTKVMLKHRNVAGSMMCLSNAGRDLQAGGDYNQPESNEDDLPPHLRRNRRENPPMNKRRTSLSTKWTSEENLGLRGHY

INS1 = experiment: beta cell apoptosis inhibitors, cytokine rescue, dose response, luminescence, retest (AID 449756); assay type: functional, cell-based; conditions: Rattus norvegicus;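 note: cell death triggered by IL-1 beta plus TNF-alpha plus IFN-gamma mixture; protective hits raise ATP signal compared with cytokine alone wells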
[9] = HeLa cell cytotoxicity, dose response, cytotoxicity control for MgcRacGAP inhibitor project (AID 624300); assay type: functional
[10] = biological target: T6, Rac GTPase-activating protein 1 (Homo sapiens, UniProt Q9H0H5); experiment: MgcRacGAP GTPase-activating activity inhibitors, confirmation, biochemical, ADP Hunter fluorescence, primary and confirmatory (AID 624330); assay type: functional
T6 sequence (Q9H0H5 whole entry): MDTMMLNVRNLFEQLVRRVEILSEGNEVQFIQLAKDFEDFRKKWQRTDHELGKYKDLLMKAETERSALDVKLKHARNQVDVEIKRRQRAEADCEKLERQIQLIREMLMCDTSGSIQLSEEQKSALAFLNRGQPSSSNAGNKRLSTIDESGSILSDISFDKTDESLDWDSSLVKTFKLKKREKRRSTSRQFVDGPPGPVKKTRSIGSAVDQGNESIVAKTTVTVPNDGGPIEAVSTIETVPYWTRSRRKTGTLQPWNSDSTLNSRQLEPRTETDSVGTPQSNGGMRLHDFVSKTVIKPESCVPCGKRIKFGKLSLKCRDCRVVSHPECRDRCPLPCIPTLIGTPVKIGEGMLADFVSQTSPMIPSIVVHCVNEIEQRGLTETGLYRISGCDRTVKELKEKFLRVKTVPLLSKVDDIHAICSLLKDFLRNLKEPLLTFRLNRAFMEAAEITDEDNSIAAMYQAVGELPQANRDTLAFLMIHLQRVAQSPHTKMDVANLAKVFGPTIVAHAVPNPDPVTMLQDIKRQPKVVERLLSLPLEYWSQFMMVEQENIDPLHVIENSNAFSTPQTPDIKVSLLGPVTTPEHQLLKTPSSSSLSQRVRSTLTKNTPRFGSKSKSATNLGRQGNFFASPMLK

Vero = experiment: cells; assay type: functional; conditions: Chlorocebus sabaeus
[11] = inhibitors of SNCA 5'UTR-driven reporter translation, confirmation, H4 neuroglioma cells, luminescence (AID 1988); assay type: functional, cell-based
[12] = inhibitors of firefly luciferase expression or activity, dose response, H4 neuroglioma cells, luminescence (AID 1990); assay type: functional, cell-based
[13] = Luminescence Cell-Based Dose Response HTS to Identify Inhibitors of 5'UTR Stem-Loop Driven Prion Protein mRNA Translation in H4 Neuroglioblastoma Cells. [Related pubchem assays: 1827 (Project Summary), 1813 (Primary HTS)]; assay type: functional
Cytochrome P450 3A4 = Cytochrome P450 3A4 (Homo sapiens, UniProt P08684);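 note: CYP3A4 tested as one member of a cytochrome P450 panel screen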
Cytochrome P450 2C19 = Cytochrome P450 2C19 (Homo sapiens, UniProt P33261); experiment: Cytochrome panel assay with activity outcomes. Panel member name: p450-cyp2c19 Compounds with AC50 equal or less than 10 uM are considered active; assay type: functional; conditions: read-out: AC50
Sequence of Cytochrome P450 2C19 (P33261 whole entry): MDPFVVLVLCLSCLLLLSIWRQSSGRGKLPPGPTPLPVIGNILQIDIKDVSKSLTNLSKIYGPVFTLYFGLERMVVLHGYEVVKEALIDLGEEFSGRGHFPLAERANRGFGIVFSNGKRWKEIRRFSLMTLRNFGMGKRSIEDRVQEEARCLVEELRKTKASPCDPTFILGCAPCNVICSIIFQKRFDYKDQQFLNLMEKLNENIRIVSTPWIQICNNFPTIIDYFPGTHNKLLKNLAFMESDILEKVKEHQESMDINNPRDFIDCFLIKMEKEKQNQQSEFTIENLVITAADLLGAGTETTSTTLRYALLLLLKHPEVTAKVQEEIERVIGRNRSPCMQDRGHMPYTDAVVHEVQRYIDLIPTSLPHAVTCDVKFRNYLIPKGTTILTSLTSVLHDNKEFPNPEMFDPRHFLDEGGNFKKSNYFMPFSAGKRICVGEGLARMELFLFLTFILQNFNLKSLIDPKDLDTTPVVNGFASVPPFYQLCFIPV

Sequence of Cytochrome P450 3A4 (P08684 whole entry): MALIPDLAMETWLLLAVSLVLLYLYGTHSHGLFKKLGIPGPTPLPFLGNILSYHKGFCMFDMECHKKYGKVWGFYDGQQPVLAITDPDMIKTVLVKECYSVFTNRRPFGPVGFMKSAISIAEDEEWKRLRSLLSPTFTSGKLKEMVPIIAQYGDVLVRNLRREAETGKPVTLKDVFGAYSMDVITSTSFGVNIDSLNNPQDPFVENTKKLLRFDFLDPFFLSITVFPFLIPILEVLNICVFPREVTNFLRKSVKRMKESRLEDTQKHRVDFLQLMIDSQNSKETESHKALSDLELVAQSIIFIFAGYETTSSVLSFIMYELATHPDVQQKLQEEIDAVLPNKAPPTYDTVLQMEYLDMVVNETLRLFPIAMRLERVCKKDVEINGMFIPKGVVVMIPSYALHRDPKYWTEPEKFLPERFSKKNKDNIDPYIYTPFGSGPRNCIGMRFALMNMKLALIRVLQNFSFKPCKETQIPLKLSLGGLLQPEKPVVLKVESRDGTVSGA

COc1ccc(-c2csc(/C(C#N)=C(\O)CSc3nccn3C)n2)cc1OC
EC50 [1]: > 195 µM (not active) | IC50 (H9c2): > 79 µM (inactive)

CC1=C(C)CC(C(=O)Nc2cccc(Cl)c2)C(C(=O)O)C1 (stereo not drawn)
IC50 (Leucine aminopeptidase): 2.38 µM (active)

CCOC(=O)C1(CCc2ccccc2)CCN(Cc2ccccn2)CC1
IC50 (cells): 3.96 µM (active) | EC50 [2]: 4.22 µM (active)

Cc1ccc(-n2c(SCC(=O)OC(C)C)nnc2-c2ccco2)cc1
IC50 (Leucine aminopeptidase): 31.2 µM (active)

C=CCNC(=O)c1ccc(NC(=O)C2=CSCCO2)cc1
EC50 [3]: 60.9 µM (active) | EC50 (BJ [4]): > 150 µM (not active) | EC50 (BJ [5]): 111 µM (active) | EC50 (BJ [6]): 24.8 µM (active)

O=S(=O)(NNC(=S)Nc1ccc(S(=O)(=O)Nc2ncccn2)cc1)c1ccc(Br)cc1
EC50 [7]: 2.97 µM (inconclusive) | EC50 [8]: 5.04 µM (active)

Cc1ccc(S(=O)(=O)c2cnc(-c3ccccc3)nc2N2CCN(C)CC2)cc1
EC50 [2]: 6.68 µM (active)

COc1cccc(NC(=O)CSc2nc3c(oc4ccccc43)c(=O)[nH]2)c1
IC50 (Leucine aminopeptidase): < 1 µM (active)

CCOC(=O)/C(C#N)=C\C=C1C=CN(C)C=C1
IC50 (Leucine aminopeptidase): 90 µM (active)

CC1(C)CC(=O)C2=C(C1)OC(N)=C(C#N)C21C(=O)N2CCCc3cccc1c32 (stereo not drawn)
EC50 [7]: > 300 µM (not active) | EC50 [8]: > 300 µM (not active)

C/C(=N\NC(=O)c1ccccc1NC(=O)c1ccc(Cl)cc1)c1ccncc1
AC50 (INS1): 0.902 µM (active) | EC50 [3]: 1.12 µM (active) | EC50 (BJ [4]): 2.18 µM (inconclusive) | EC50 (BJ [5]): 1.21 µM (inconclusive) | EC50 (BJ [6]): 0.856 µM (inconclusive)

Nc1ccccc1C(=O)NNc1c2ccccc2nc2ccccc12
CC50 [9]: 100 µM (active) | IC50 [10]: 98.3 µM (active)

OCCCNc1ncnc2sc3c(c12)CCN(Cc1ccccc1)C3
EC50 [7]: > 300 µM (not active) | EC50 [8]: 24.9 µM (active)

COc1ccc(-n2cccc2/C=C/[N+](=O)[O-])cc1
CC50 [9]: 42.3 µM (active) | CC50 (Vero): 16 µM (active) | IC50 [10]: 44 µM (active)

CCCCN1C(=O)/C(=C2/Sc3ccc(OC)cc3N2CC)SC1=S
EC50 [7]: > 300 µM (inconclusive) | EC50 [8]: > 300 µM (inconclusive)

CCOc1cc(/C=C(\C#N)c2[nH]nc(N)c2C#N)ccc1O
CC50 [9]: 100 µM (active) | EC50 [11]: > 120 µM (not active) | EC50 [12]: 11.9 µM (active) | EC50 [13]: 14.6 µM (active)

O=C(O)c1cccc(-c2ccc(/C=N/NC(=O)C3COc4ccccc4O3)o2)c1 (stereo not drawn)
IC50 (Leucine aminopeptidase): 45.6 µM (active)

CCc1nc2ccccc2n1Cc1ccccc1OC
EC50 [2]: 10.6 µM (active)

Clc1ccc(Nc2nc[nH]n2)cc1
AC50 (Cytochrome P450 3A4): 31.6 µM (inconclusive) | IC50 (Leucine aminopeptidase): 1.53 µM (active) | AC50 (Cytochrome P450 2C19): 14.1 µM (inconclusive)

Cc1n[nH]c(O)c1/C=N/N1CCOCC1
EC50 [7]: > 300 µM (not active) | EC50 [8]: > 300 µM (not active)

COc1cc2c(cc1N=C(S)Nc1cccc(C(F)(F)F)c1)oc1ccccc12
CC50 [9]: 100 µM (active) | IC50 [10]: 225 µM (active)

Cc1ccccc1[N+]1=C2CCCCN2C(O)(c2cccs2)C1 (stereo not drawn)
EC50 [2]: 2.37 µM (active)

COc1ccc(/C=C2\CCCC(C(=O)C(F)(F)F)=C2O)cc1OC
EC50 [7]: > 300 µM (not active) | EC50 [8]: 254 µM (inconclusive)

CC(C)Sc1nc2sc3c(c2c2nnc(SCC(=O)NCc4ccco4)n12)CCCC3
EC50 [2]: 3.76 µM (active)

— ChEMBL document CHEMBL1201862, “PubChem BioAssay data set” (2004)
